Source: paper PMC8394243 (Biomolecules, 2021)
Ends that are not written are not given here.

Tests used:
[1] = SDS-PAGE; for Effect of pefabloc (serine protease inhibitor) on degradation in CF sputum, 4 h / Effect of pefabloc (serine protease inhibitor) on degradation in CF sputum, 24 h: 1 mM pefabloc pre-incubated 30 min with sputum (100-fold in TBS)
Method: Sputum from Pseudomonas-infected CF patients was obtained anonymously from the adult CF Centre at Belfast City Hospital. Sputum samples were in excess to requirements for diagnostic purposes. Permission to use sputum samples, which would have been disposed of, for validation purposes was given by the Director of R&D, Belfast Health and Social Care Trust. Sputum was frozen immediately at −80 °C and used the next day after thawing at room temperature.
Samples were transferred to a fresh Eppendorf at regular time-points (0, 1, 2, 3, 4, 18 and 24, as appropriate) and boiled on a heat block at 95 °C for ten minutes to terminate the reaction. […] CF sputum (diluted 100-fold in 1X TBS) was incubated with 0.1 mM E64, 5 mM EDTA or 1 mM pefabloc for 30 min prior to addition of peptides. Following the addition of peptide, the samples were incubated for four or 24 h at 37 °C. An aliquot was taken at 0, 4 or 24 h and boiled for ten minutes at 95 °C to terminate the reaction. Samples were stored at 4 °C until analysed by SDS-PAGE.
Peptide samples were separated by sodium dodecyl sulphate-polyacrylamide gel electrophoresis (SDS-PAGE) under denaturing and reducing conditions using 4–12% Invitrogen NuPAGE Novex Bis-Tris precast gels (Thermo Fisher Scientific, Loughborough, UK) and the Invitrogen XCell SureLock Mini-Cell (Thermo Fisher Scientific, Loughborough, UK). An aliquot of 10 μL peptide samples was incubated with 4 μL NuPAGE lithium dodecyl sulphate (LDS) sample buffer (Thermo Fisher Scientific) and 2 μL of 500 nM dithiothreitol (DTT) (Fluorochem, Hadfield, UK) for ten minutes at 95 °C and 15 μL of sample mixture loaded per lane and 5 μL of SeeBlue Plus2 pre-stained protein standard (Thermo Fisher Scientific, Loughborough, UK) loaded in at least one lane. The samples were run using 1X 2-morpholinoethanesulfonic acid (MES)-SDS running buffer (Thermo Fisher Scientific, Loughborough, UK). Electrophoresis was performed under a constant current of 125 mA for 40–60 min. The gel was stained using Biosafe Coomassie Brilliant Blue G-250 stain (Biorad, Watford, UK) for 60 min, washed and destained in water overnight and imaged using a Syngene G:box and GeneSnap software (Syngene, Cambridge, UK).

[2] = target: human sputum leucocyte elastase (neutrophil elastase, NE) (Homo sapiens, UniProt P08246); details: 500 nM NE, 37 °C, 0-4 h, hourly samples; peptide 500 μg/mL or parental molar equivalent (160 or 120 μM); SDS-PAGE, Coomassie, visual
Method: The method for reaction termination was dependent on subsequent experiments/analysis. For samples intended for investigation of peptide activity using in vitro experiments the reaction was terminated via addition of 1 mM of the serine protease inhibitor pefabloc (Merck, Gillingham, UK), which was added to all groups including the NE alone groups. Samples intended for peptide degradation analysis via SDS-PAGE or mass spectrometry were boiled at 95 °C for ten minutes using a heat block to terminate the reaction.
Peptide samples were separated by sodium dodecyl sulphate-polyacrylamide gel electrophoresis (SDS-PAGE) under denaturing and reducing conditions using 4–12% Invitrogen NuPAGE Novex Bis-Tris precast gels (Thermo Fisher Scientific, Loughborough, UK) and the Invitrogen XCell SureLock Mini-Cell (Thermo Fisher Scientific, Loughborough, UK). An aliquot of 10 μL peptide samples was incubated with 4 μL NuPAGE lithium dodecyl sulphate (LDS) sample buffer (Thermo Fisher Scientific) and 2 μL of […] dithiothreitol (DTT) (Fluorochem, Hadfield, UK) for ten minutes at 95 °C and 15 μL of sample mixture loaded per lane and 5 μL of SeeBlue Plus2 pre-stained protein standard (Thermo Fisher Scientific, Loughborough, UK) loaded in at least one lane. The samples were run using 1X 2-morpholinoethanesulfonic acid (MES)-SDS running buffer (Thermo Fisher Scientific, Loughborough, UK). Electrophoresis was performed under a constant current of 125 mA for 40–60 min. The gel was stained using Biosafe Coomassie Brilliant Blue G-250 stain (Biorad, Watford, UK) for 60 min, washed and destained in water overnight and imaged using a Syngene G:box and GeneSnap software (Syngene, Cambridge, UK).

[3] = test system: human sputum leucocyte elastase (neutrophil elastase, NE); test: 500 nM of NE in 1 X TBS; details: 37 °C, up to four hours
neutrophil elastase = neutrophil elastase (Homo sapiens, UniProt P08246); details: 500 μg/mL peptide, 500 nM NE in 1X TBS, 4 h, 37 °C; MALDI-TOF-MS
Method: The method for reaction termination was dependent on subsequent experiments/analysis. […] Samples intended for peptide degradation analysis via SDS-PAGE or mass spectrometry were boiled at 95 °C for ten minutes using a heat block to terminate the reaction.
This service was provided by the University of Dundee (Dundee, UK).

[4] = CF sputum (diluted 100-fold in 1X tris-buffered saline (TBS)); details: CF patients, 37 °C, up to four hours
[5] = 5 mM EDTA pre-incubated 30 min with sputum (100-fold in TBS), then peptide 24 h at 37 °C

Sequence of human sputum leucocyte elastase (neutrophil elastase, NE) (Homo sapiens, UniProt P08246) (P08246 30-247 limits assumed): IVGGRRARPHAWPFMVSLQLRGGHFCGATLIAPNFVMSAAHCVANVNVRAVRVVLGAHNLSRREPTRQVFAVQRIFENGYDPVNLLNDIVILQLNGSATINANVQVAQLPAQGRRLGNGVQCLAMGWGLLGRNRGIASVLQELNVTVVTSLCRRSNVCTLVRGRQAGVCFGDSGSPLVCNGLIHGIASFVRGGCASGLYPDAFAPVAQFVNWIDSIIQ
Sequence of neutrophil elastase (P08246 30-247 limits assumed): as above

## KFFKRLLKSVRRAVKKFRKK [Sn1a]
[1]; then peptide 4 h at 37 °C
  Effect of pefabloc (serine protease inhibitor) on degradation in CF sputum, 4 h: prevented only by the inhibitor pefabloc

## KFFKRLLKSVRRAVKKFRKKPRLIGLSTLL [Sn1]
[1]; then peptide 4 h at 37 °C
  Effect of pefabloc (serine protease inhibitor) on degradation in CF sputum, 4 h: prevented only by the inhibitor pefabloc

## KRFKKFFKKLKNSV [SnE1N]
[2]
  Cleavage by neutrophil elastase: appeared to remain intact
[1]; then peptide 24 h at 37 °C
  Effect of pefabloc (serine protease inhibitor) on degradation in CF sputum, 24 h: prevented degradation
[1]; [5]
  Effect of EDTA (MMP inhibitor) on degradation in CF sputum, 24 h: prevented degradation

## KRFKKFFKKLKNSVKKRAKKFFKKPRVI [SnE1-F]
[2]
  Cleavage by neutrophil elastase: gradual transition from one band of larger molecular weight to one or more bands of smaller molecular weight
[1]; 0.1 mM E64 pre-incubated 30 min with sputum (100-fold in TBS), then peptide 24 h at 37 °C
  Effect of E64 (cysteine protease inhibitor) on degradation in CF sputum, 24 h: did not prevent
[1]; then peptide 4 h at 37 °C
  Effect of pefabloc (serine protease inhibitor) on degradation in CF sputum, 4 h: prevented in the presence of pefabloc
[1]; then peptide 24 h at 37 °C
  Effect of pefabloc (serine protease inhibitor) on degradation in CF sputum, 24 h: prevented the degradation
[1]; [5]
  Effect of EDTA (MMP inhibitor) on degradation in CF sputum, 24 h: did not prevent
[1]; CF sputum diluted 100-fold in 1X TBS, 37 °C, 0-4 h, peptide 500 μg/mL or parental molar equivalent (160 or 120 μM), Coomassie, visual
  Degradation in CF sputum within 4 h: some degradation

## KRFKKFFKKLKNSVKKRAKKFFKKPRVIGVSIPF
[3]
  cleaved bond: V-K and I-G

## KRFKKFFKKLKNSVKKRAKKFFKKPRVIGVSIPF [SnE1]
[2]
  Cleavage by neutrophil elastase: gradual transition from one band of larger molecular weight to one or more bands of smaller molecular weight
Neutrophil elastase
  Neutrophil elastase cleavage sites (peptide cleaved after each site marked): KRFKKFFKKLKNSV│[…]│GVSIPF

## KRFKKFFKKVKKSVKKRLKKIFKKPMVIGVTIPF
[3]
  cleaved bond: V-K and I-F

## KRFKKFFKKVKKSVKKRLKKIFKKPMVIGVTIPF [SnV1]
[1]; then peptide 4 h at 37 °C
  Effect of pefabloc (serine protease inhibitor) on degradation in CF sputum, 4 h: prevented only by the inhibitor pefabloc

## KRFKKFFKRLLKSV
[4]
  not cleaved: did not exhibit obvious degradation when incubated with CF sputum after 4 h

## KRFKKFFKRLLKSV [Sn1bN]
[2]
  Cleavage by neutrophil elastase: did not result in obvious cleavage

## KRFKKFFKRLLKSVRRAVKKFRKK
[3]
  cleaved bond: V-R

## KRFKKFFKRLLKSVRRAVKKFRKK [Sn1b]
[2]
  Cleavage by neutrophil elastase: rapidly cleaved
[1]; 5 mM EDTA pre-incubated 30 min with sputum (100-fold in TBS), then peptide 4 h at 37 °C
  Effect of EDTA (MMP inhibitor) on degradation in CF sputum, 4 h: inhibited
